# Reference: publication PMC9606955, “In Vitro Activity of Essential Oils Distilled from Colombian Plants against Candida auris and Other Candida Species with Different Antifungal Susceptibility Profiles” (Molecules, 2022)
# Entries after “also recorded” stand apart in the source; their conditions may differ.
# Tests used:
# C. albicans ATCC 10231 = experiment: Time–kill assay; assay type: cell-based, Candida albicans; settings: 1X and 2X MIC, 24 h
# Procedure: (§1) Time–kill assays with the L. origanoides (thymol + p-cymene) chemotype (Code 0018) EO, thymol, FLC, and AMB against C. albicans ATCC 10231, C. tropicalis ATCC 200956, and C. auris CDC B11903 were performed according to the protocol published by Klebser et al. with some modifications. […] Absorbance at λ = 490 nm was measured every 2 h with a Multiskan SkyHigh Microplate Spectrophotometer. AMB and FLC were included as fungicidal and fungistatic control drugs, respectively.
# C. lusitaniae MUM 17.08 = experiment: MIC, CLSI M27 broth microdilution; assay type: cell-based, Candida lusitaniae; settings: C. lusitaniae MUM 17.08, EOs and terpenes; for MIC: Clavispora lusitaniae, MUM17.08, 24 h, top concentration 256 µg/mL, read-out: GM MIC
# Description: (§2) The fungal strains used in this study were C. albicans ATCC 10231, C. albicans ATCC 64550, C. parapsilosis ATCC 22019, C. tropicalis ATCC 750, C. tropicalis ATCC 200956 (resistant to azoles and AMB), C. glabrata LMDM 34 (resistant to echinocandins), C. metapsilosis MUM 15.12, C. orthopsilosis MUM 17.13, C. lusitaniae MUM 17.08, C. krusei ATCC 6258 (Issatchenkia orientalis ATCC 6258), and C. auris CDC B11903. Additionally, nine clinical isolates were included: C. parapsilosis Synlab 406 (FLC-resistant) and eight C. auris isolates identified by MALDI-TOF MS (Bruker Daltonics, Bremen, Germany) according to Zhao et al.. These yeasts were cultured on Sabouraud Dextrose Agar (SDA; Sigma-Aldrich, St. Louis, MO, USA) for 24 h at 35 °C.
# (§3) Antifungal susceptibility testing was performed according to Clinical and Laboratory Standards Institute M27, 4th Edition (CLSI standard M27, 4th Edition). Some modifications were applied for evaluation of the antifungal activity of EOs and terpenes. Initially, a screening was carried out to determine the antifungal activity of the EOs and of commercial terpenes. Stock concentrations of EOs and terpenes were prepared at 512 µg/mL and an inoculum of 2.5 × 10^3 CFU/mL of each yeast was prepared in RPMI 1640-MOPS (Sigma- Aldrich St. Louis, MO, USA). Thereafter, 100 µL of each stock solution of EOs or terpenes was dispensed in 96-well microdilution plates (Corning®, Costar®, NY, USA) and 100 µL of each yeast inoculum was added. […] Microdilution plates were incubated at 35 °C and, after 24 h, the presence or absence of growth was visually checked using a manual mirror viewer and then compared with the amount of growth in the control (no EO or terpene). Compounds able to inhibit yeast growth were tested to determine the minimal inhibitory concentration (MIC) as follows: 100 µL of 10 two-fold dilutions of the EOs or commercial terpenes was dispensed in 96-well microplates and the yeast inoculum was added. Final concentrations of the EOs or terpenes ranged from 0.5 µg/mL to 256 µg/mL. Microdilution plates were incubated at 35 °C for 24 h. MICs were visually determined at the lowest concentration that produced visual inhibition compared to the growth control. The assays were performed at least three times in duplicate on different days. The results were expressed as geometric means (GM) and ranges. As an antifungal susceptibility testing control, the activity of ITC and AMB against the reference strains C. krusei ATCC 6258 and C. parapsilosis ATCC 22019 was evaluated in all experiments following the CLSI standard M27, 4th Edition. It was mandatory that the MIC values remained in the accepted range.
# [1] = system: C. parapsilosis Synlab 406; experiment: MIC, CLSI M27 broth microdilution; assay type: cell-based, Candida parapsilosis; settings: Lodderomyces parapsilosis, SYNLAB406; C. parapsilosis Synlab 406; EOs and terpenes; 24 h; top concentration 256 µg/mL; read-out: GM MIC
# Description: as §2, §3
# Cytotoxicity, MTT assay = settings: human, HaCaT keratinocyte cells
# Procedure: Cells were cultured in Dulbecco’s Modified Eagle Medium (DMEM; Sigma-Aldrich, St. Louis, MO, USA) supplemented with 10% fetal bovine serum (Invitrogen, Carlsbad, CA, USA), 1% penicillin, streptomycin, and neomycin (Invitrogen, Carlsbad, CA, USA), and 1% L-glutamine (Invitrogen, Carlsbad, CA, USA) at 37 °C in a humidified atmosphere of 5% CO2. […] Afterwards, the culture medium was removed and 3-(4.5-dimethylthiazol-2-yl)-2.5-diphenyltetrazolium bromide (MTT) (Sigma-Aldrich, St. Louis, MO, USA) at 5 mg/mL was added at 37 °C for 2 h. Subsequently, DMSO was added to dissolve the formazan crystals. Finally, the absorbances were measured with a Multiskan SkyHigh Microplate Spectrophotometer (Thermo Fisher Scientific, Waltham, MA, USA) at λ = 570 nm. The CC50 values were obtained by linear regression analysis with concentration–response curves, which were performed with absorbance data using GraphPad Prism software (Prism 9.3.0, San Diego, CA, USA). The assays were conducted at two separate times in triplicate. The data were expressed as means.
# C. auris = system: C. auris; design: method as in PMID 31980703; settings: cited from earlier work
# [2] = system: C. orthopsilosis MUM 17.13; experiment: MIC, CLSI M27 broth microdilution; assay type: cell-based, Candida orthopsilosis; settings: Lodderomyces orthopsilosis, MUM17.13; C. orthopsilosis MUM 15.12 (Table 3); EOs and terpenes; 24 h; top concentration 256 µg/mL; read-out: GM MIC
# Description: as §2, §3
# C. auris CDC B11903 [3] = experiment: Time–kill assay; assay type: cell-based, Candida auris
# Procedure: as §1
# [4] = system: C. tropicalis ATCC 200956; experiment: MIC, CLSI M27 broth microdilution; assay type: cell-based, Candida tropicalis; settings: C. tropicalis ATCC 200956, EOs and terpenes; for MIC: Candida tropicalis, ATCC200956, 24 h, top concentration 256 µg/mL, read-out: GM MIC
# Description: as §2, §3
# [5] = system: C. metapsilosis MUM 15.12; experiment: MIC, CLSI M27 broth microdilution; assay type: cell-based, Candida metapsilosis; settings: Lodderomyces metapsilosis, MUM15.12; C. metapsilosis MUM 17.13 (Table 3); EOs and terpenes; 24 h; top concentration 256 µg/mL; read-out: GM MIC
# Description: as §2, §3
# C. auris CDC B11903 [6] = experiment: MIC, CLSI M27 broth microdilution; assay type: cell-based, Candida auris; settings: Candidozyma auris, CDCB11903; C. auris CDC B11903; EOs and terpenes; 24 h; top concentration 256 µg/mL; read-out: GM MIC
# Description: as §2, §3
# C. auris Ca 41 = experiment: MIC, CLSI M27 broth microdilution; assay type: cell-based, Candida auris; settings: Candidozyma auris, CA41; C. auris Ca 41; EOs and terpenes; 24 h; top concentration 256 µg/mL; read-out: GM MIC
# Description: as §2, §3
# C. auris Ca 1 = experiment: MIC, CLSI M27 broth microdilution; assay type: cell-based, Candida auris; settings: C. auris Ca 1, EOs and terpenes
# Description: as §2, §3
# C. auris Ca 13 = experiment: MIC, CLSI M27 broth microdilution; assay type: cell-based, Candida auris; settings: Candidozyma auris, CA13; C. auris Ca 13; EOs and terpenes; 24 h; top concentration 256 µg/mL; read-out: GM MIC
# Description: as §2, §3
# C. auris Ca 9 = experiment: MIC, CLSI M27 broth microdilution; assay type: cell-based, Candida auris; settings: Candidozyma auris, CA9; C. auris Ca 9; EOs and terpenes; 24 h; top concentration 256 µg/mL; read-out: GM MIC
# Description: as §2, §3
# C. auris Ca 45 = experiment: MIC, CLSI M27 broth microdilution; assay type: cell-based, Candida auris; settings: Candidozyma auris, CA45; C. auris Ca 45; EOs and terpenes; 24 h; top concentration 256 µg/mL; read-out: GM MIC
# Description: as §2, §3
# C. auris Ca 32 = experiment: MIC, CLSI M27 broth microdilution; assay type: cell-based, Candida auris; settings: Candidozyma auris, CA32; C. auris Ca 32; EOs and terpenes; 24 h; top concentration 256 µg/mL; read-out: GM MIC
# Description: as §2, §3
# C. auris Ca 46 = experiment: MIC, CLSI M27 broth microdilution; assay type: cell-based, Candida auris; settings: Candidozyma auris, CA46; C. auris Ca 46; EOs and terpenes; 24 h; top concentration 256 µg/mL; read-out: GM MIC
# Description: as §2, §3
# C. auris Ca 17 = experiment: MIC, CLSI M27 broth microdilution; assay type: cell-based, Candida auris; settings: Candidozyma auris, CA17; C. auris Ca 17; EOs and terpenes; 24 h; top concentration 256 µg/mL; read-out: GM MIC
# Description: as §2, §3
# [7] = system: C. tropicalis ATCC 200956; experiment: Time–kill assay; assay type: cell-based, Candida tropicalis; settings: 1X and 2X MIC, 24 h
# Procedure: as §1
# C. krusei ATCC 6258 = experiment: MIC, CLSI M27 broth microdilution; assay type: cell-based, Candida krusei; settings: C. krusei ATCC 6258, EOs and terpenes; for MIC: Pichia kudriavzevii, ATCC6258, 24 h, top concentration 256 µg/mL, read-out: GM MIC
# Description: as §2, §3
# Candida spp. = experiment: Screening of antifungal activity at 256 µg/mL against twenty strains; assay type: cell-based; settings: screening at 256 µg/mL
# Description: as §2
# Antifungal susceptibility testing was performed according to Clinical and Laboratory Standards Institute M27, 4th Edition (CLSI standard M27, 4th Edition). Some modifications were applied for evaluation of the antifungal activity of EOs and terpenes. Initially, a screening was carried out to determine the antifungal activity of the EOs and of commercial terpenes. Stock concentrations of EOs and terpenes were prepared at 512 µg/mL and an inoculum of 2.5 × 10^3 CFU/mL of each yeast was prepared in RPMI 1640-MOPS (Sigma- Aldrich St. Louis, MO, USA). Thereafter, 100 µL of each stock solution of EOs or terpenes was dispensed in 96-well microdilution plates (Corning®, Costar®, NY, USA) and 100 µL of each yeast inoculum was added. […] MICs were visually determined at the lowest concentration that produced visual inhibition compared to the growth control. […] The results were expressed as geometric means (GM) and ranges. As an antifungal susceptibility testing control, the activity of ITC and AMB against the reference strains C. krusei ATCC 6258 and C. parapsilosis ATCC 22019 was evaluated in all experiments following the CLSI standard M27, 4th Edition. […]
SMILES,MIC (C. lusitaniae MUM 17.08),MIC [1],"CC50 at 24 h (Cytotoxicity, MTT assay)",MIC [2],Range MIC [4],MIC [4],MIC [5],MIC (C. auris CDC B11903 [6]),MIC (C. auris Ca 41),MIC (C. auris Ca 13),MIC (C. auris Ca 9),MIC (C. auris Ca 45),MIC (C. auris Ca 32),MIC (C. auris Ca 46),MIC (C. auris Ca 17),Range MIC (C. krusei ATCC 6258),MIC (C. krusei ATCC 6258),further results
"Cc1ccc(C(C)C)c(O)c1 [Thymol, thymol]",90.5 µg/mL,64 µg/mL,428 µg/mL,128 µg/mL,64 to 128 µg/mL,90.5 µg/mL,128 µg/mL,64 µg/mL,64 µg/mL,128 µg/mL,128 µg/mL,64 µg/mL,64 µg/mL,64 µg/mL,64 µg/mL,128 to 256 µg/mL,181 µg/mL,"effect in time–kill assay (C. albicans ATCC 10231): fungicidal; Range MIC (C. lusitaniae MUM 17.08): 64 to 128 µg/mL; MIC Range (C. auris): 156 to 625 µg/mL; effect on growth in time–kill assay (C. auris CDC B11903 [3]; 0.5, 1 and 2X MIC, 24 h): not affected; also recorded: did not show fungicidal activity; lag-phase in time–kill assay (C. auris CDC B11903 [3]; 2X MIC): extended lag-phase; Range MIC (C. auris Ca 1): 128 to 256 µg/mL; MIC (C. auris Ca 1; Candidozyma auris, CA1, 24 h, top concentration 256 µg/mL, read-out: GM MIC): 181 µg/mL; effect in time–kill assay [7]: fungicidal; antifungal activity in screening (Candida spp.): active against all tested Candida spp."
"Cc1ccc(C(C)C)cc1 [p-Cymene, p-cymene]",256 µg/mL,256 µg/mL,831 µg/mL,256 µg/mL,128 to 256 µg/mL,181 µg/mL,256 µg/mL,256 µg/mL,256 µg/mL,256 µg/mL,256 µg/mL,256 µg/mL,128 µg/mL,256 µg/mL,256 µg/mL,128 to 256 µg/mL,181 µg/mL,
